These results are taken from ChEMBL document CHEMBL1201862, “PubChem BioAssay data set” (2004).

Activity calls are given as the source filed them.

The target of assay [1] is 1-phosphatidylinositol 4,5-bisphosphate phosphodiesterase gamma-1 (Homo sapiens, UniProt P19174). The assay can be described thus: Counterscreen for inhibitors of phospholipase C isozymes (PLC-B3): Fluorescence-based biochemical high throughput dose response assay to identify inhibitors of phospholipase C isozymes (PLC-gamma1).
1-phosphatidylinositol 4,5-bisphosphate phosphodiesterase gamma-1, sequence (P19174 whole entry): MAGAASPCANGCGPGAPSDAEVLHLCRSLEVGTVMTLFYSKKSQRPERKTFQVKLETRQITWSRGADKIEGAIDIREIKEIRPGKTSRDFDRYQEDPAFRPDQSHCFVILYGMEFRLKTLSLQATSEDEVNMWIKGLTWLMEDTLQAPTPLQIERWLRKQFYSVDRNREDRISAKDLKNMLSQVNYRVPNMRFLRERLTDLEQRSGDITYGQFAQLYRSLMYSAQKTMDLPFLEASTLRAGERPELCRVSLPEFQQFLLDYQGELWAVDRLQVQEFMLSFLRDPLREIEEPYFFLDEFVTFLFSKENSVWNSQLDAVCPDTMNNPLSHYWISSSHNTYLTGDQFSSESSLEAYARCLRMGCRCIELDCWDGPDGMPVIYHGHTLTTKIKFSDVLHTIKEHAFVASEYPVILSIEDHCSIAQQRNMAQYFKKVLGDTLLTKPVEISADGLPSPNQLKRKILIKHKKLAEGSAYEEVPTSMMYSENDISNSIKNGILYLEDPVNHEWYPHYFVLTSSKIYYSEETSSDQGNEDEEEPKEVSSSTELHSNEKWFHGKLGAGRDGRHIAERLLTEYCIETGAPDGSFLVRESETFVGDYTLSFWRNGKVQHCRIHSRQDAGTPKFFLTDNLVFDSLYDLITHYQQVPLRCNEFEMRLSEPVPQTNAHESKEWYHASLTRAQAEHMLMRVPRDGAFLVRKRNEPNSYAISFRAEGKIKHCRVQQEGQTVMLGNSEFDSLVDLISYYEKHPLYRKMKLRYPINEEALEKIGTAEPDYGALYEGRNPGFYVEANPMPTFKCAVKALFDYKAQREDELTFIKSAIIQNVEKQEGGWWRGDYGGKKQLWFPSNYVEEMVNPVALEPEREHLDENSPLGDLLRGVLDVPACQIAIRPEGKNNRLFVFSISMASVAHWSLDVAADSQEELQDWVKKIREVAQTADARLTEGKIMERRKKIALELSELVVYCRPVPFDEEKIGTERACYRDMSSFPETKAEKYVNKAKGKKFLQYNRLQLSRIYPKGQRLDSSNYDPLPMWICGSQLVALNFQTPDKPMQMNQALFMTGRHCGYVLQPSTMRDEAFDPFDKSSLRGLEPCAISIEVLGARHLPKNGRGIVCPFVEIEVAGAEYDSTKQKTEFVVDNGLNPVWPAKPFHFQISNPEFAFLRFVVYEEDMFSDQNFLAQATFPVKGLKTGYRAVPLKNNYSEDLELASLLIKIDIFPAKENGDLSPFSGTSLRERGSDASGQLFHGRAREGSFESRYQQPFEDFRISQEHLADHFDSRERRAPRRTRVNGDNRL
Assay [2] concerns the target 1-phosphatidylinositol 4,5-bisphosphate phosphodiesterase beta-3 (Homo sapiens, UniProt Q01970). The assay can be described thus: Fluorescence-based biochemical high throughput dose response assay to identify inhibitors of phospholipase C isozymes (PLC-B3).
The next assay has as its target Large T antigen (Simian virus 40, UniProt P03070). It is filed as functional, Betapolyomavirus macacae.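 Note: Confirmatory-stage PubChem screen for compounds that inhibit SV40 T antigen.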
In assay [3] the target is Intestinal-type alkaline phosphatase (Mus musculus, UniProt P24822). The assay can be described thus: PubChem AID 488785. Type of assay: functional.
Assay [4] deals with T1, Alkaline phosphatase, tissue-nonspecific isozyme (Homo sapiens, UniProt P05186).
T1 sequence (P05186 whole entry): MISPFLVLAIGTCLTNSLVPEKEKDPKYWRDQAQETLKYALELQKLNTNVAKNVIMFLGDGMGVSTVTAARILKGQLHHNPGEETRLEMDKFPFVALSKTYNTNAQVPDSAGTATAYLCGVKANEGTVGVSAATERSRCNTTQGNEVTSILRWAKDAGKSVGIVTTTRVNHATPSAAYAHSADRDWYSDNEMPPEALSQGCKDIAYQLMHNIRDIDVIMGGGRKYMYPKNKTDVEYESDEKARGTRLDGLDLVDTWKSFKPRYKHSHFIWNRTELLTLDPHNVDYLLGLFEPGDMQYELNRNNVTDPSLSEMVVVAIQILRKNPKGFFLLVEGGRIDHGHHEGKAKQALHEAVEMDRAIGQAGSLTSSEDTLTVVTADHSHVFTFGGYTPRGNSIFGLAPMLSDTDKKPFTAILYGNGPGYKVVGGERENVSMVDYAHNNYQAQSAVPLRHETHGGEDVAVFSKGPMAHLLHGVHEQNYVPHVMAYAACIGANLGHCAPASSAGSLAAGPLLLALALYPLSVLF
Nature of the assay: TNAP enzyme inhibition by screening hits, dose response, selectivity assay for mouse IAP inhibitor project, biochemical, human TNAP, uHTS hits (AID 488906). It is filed as functional.

Assay [5] concerns the target Intestinal-type alkaline phosphatase (Homo sapiens, UniProt P09923). Nature of the assay: inhibition of human intestinal alkaline phosphatase – biochemical, dose response (AID 488876). It is filed as functional.
The test system of a further assay is Vero. Nature of the assay: Vero cell cytotoxicity, cytotoxicity control for flavivirus capping enzyme inhibitors (AID 588742). It is filed as functional. The conditions noted are these: Chlorocebus sabaeus.
The next assay has as its target Genome polyprotein (dengue virus type 2, UniProt P29990). The assay can be described thus: Dengue-2 NS5 methyltransferase inhibitors, primary screen, biochemical, confirmation dose response (AID 588689). Type of assay: functional.
Assay [6] in a line: Shn3 3'UTR reporter inhibitors, dose response, cell-based, Clone20 osteoblasts, firefly luciferase, cherry-picked (AID 624132).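 Note: firefly luciferase luminescence from reporter carrying the Shn3 3'UTR in osteoblasts.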 Type of assay: functional.
Assay [7] in a line: control 3'UTR Renilla luciferase suppression, dose response, counter-screen for Shn3 inhibitor project, cell-based, Clone20-Shn3RL, cherry-picked (AID 624133). It is filed as functional.
A further assay concerns the target T2, Caspase-6 (Homo sapiens, UniProt P55212).
T2 sequence (P55212 whole entry): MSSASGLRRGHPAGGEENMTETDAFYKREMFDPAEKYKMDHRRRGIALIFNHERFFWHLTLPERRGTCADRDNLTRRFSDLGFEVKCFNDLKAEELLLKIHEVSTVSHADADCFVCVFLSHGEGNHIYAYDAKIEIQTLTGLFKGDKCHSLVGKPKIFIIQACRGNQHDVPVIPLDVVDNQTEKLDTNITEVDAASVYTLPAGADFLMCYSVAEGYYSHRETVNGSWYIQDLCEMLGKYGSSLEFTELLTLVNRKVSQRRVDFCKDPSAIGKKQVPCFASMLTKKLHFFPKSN
The assay can be described thus: human caspase-6 inhibitors, dose response, biochemical, VEID-R110 fluorescence, cherry-pick (AID 720632).

The target of assay [8] is Histone-lysine N-methyltransferase NSD2 (Homo sapiens, UniProt O96028). It is filed as biochemical.
Histone-lysine N-methyltransferase NSD2, sequence (O96028 whole entry): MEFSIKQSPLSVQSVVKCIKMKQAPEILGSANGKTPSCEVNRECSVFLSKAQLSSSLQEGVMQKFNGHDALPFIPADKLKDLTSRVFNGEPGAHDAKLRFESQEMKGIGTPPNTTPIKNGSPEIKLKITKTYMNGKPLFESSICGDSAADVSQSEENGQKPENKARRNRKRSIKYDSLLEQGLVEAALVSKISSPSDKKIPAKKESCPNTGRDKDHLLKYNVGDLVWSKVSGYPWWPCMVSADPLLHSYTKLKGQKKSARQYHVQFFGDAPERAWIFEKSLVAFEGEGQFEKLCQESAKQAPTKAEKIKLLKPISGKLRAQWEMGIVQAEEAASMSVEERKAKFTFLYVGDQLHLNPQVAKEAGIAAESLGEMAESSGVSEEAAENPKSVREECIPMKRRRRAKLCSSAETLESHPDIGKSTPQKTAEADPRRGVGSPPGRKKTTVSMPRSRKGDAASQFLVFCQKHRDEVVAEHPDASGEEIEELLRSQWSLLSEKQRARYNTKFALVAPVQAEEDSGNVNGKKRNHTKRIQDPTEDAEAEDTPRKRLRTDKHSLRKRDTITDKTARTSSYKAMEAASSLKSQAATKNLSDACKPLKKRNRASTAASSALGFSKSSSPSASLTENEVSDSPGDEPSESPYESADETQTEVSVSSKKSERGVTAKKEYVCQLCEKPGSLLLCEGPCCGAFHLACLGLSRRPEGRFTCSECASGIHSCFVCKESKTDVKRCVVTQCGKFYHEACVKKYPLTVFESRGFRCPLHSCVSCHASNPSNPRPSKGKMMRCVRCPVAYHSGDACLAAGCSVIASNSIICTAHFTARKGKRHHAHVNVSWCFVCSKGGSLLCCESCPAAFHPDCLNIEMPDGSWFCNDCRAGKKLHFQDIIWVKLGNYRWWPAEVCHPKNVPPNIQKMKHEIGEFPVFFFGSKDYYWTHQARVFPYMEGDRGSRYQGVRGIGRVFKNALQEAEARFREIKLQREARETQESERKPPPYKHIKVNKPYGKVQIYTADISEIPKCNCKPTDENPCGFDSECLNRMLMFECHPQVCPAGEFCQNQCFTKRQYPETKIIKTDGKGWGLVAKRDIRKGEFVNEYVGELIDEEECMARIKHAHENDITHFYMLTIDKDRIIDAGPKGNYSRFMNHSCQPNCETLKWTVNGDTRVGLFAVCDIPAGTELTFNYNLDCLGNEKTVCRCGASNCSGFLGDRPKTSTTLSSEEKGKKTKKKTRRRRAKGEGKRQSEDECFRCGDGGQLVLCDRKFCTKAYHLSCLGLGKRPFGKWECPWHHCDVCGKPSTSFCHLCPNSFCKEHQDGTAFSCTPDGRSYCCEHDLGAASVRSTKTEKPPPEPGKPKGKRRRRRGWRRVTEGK
The next assay has as its target Transthyretin (Homo sapiens, UniProt P02766). Nature of the assay: Luminescence-based cell-based high throughput dose response assay to identify activators of Transthyretin (TTR) transcription. It is filed as functional.
The target of the next assay is fMet-Leu-Phe receptor (Homo sapiens, UniProt P21462). The assay can be described thus: FPR ligands, dose response (AID 519). It is filed as functional.
fMet-Leu-Phe receptor, sequence (P21462 whole entry): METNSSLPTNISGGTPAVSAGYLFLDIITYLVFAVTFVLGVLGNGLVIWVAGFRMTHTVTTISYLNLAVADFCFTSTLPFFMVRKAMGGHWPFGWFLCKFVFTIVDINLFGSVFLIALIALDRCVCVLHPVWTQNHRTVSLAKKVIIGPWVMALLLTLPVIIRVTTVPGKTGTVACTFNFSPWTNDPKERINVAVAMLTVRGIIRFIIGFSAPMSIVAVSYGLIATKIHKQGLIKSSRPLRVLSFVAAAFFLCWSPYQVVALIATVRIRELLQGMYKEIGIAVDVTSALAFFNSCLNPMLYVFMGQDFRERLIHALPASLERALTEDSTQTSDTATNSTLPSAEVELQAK
The nature of assay [9]: ADAM10 inhibitors, peptide cleavage, dose response, biochemical, QFRET (AID 743254).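 Note: ADAM10 enzyme with the DM2 quenched FRET peptide as substrate; EDANS fluorescence gain as the protease cuts the substrate; inhibitor potency against ADAM10 proteolytic activity.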
Assay [10] deals with Disintegrin and metalloproteinase domain-containing protein 17 (Homo sapiens, UniProt P78536). Nature of the assay: ADAM17 protease inhibitors, dose response, counter-screen for ADAM10 exosite inhibitor project, biochemical, quenched FRET substrate (AID 743253).
Disintegrin and metalloproteinase domain-containing protein 17, sequence (P78536 whole entry, the tested form may be a part): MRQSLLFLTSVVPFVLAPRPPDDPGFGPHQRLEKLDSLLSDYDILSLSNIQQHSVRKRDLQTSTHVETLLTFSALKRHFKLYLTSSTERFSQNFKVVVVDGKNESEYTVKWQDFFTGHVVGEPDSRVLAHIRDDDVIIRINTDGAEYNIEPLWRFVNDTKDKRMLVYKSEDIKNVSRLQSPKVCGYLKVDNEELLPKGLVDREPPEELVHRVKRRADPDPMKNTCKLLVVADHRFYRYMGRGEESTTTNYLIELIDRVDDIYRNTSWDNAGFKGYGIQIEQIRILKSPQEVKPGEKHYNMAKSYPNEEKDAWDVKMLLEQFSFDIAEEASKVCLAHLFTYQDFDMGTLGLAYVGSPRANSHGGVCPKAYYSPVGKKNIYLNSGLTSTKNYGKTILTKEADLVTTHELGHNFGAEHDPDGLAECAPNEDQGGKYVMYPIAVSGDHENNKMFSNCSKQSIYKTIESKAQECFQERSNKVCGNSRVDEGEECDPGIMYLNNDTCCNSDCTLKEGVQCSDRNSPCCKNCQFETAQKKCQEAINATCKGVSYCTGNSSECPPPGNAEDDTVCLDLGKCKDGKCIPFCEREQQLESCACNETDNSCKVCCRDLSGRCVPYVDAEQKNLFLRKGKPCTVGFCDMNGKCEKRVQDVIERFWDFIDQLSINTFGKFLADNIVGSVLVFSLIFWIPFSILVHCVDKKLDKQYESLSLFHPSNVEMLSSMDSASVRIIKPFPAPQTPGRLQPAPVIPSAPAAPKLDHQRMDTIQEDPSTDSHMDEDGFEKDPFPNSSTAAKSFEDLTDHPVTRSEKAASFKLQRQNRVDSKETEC
A further assay has as its system HEK293. Nature of the assay: HEK293T cell cytotoxicity, dose response, cytotoxicity control, ATP luminescence, cherry-pick samples (AID 687005).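 Note: cells exposed to compound for 48 hours.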 Type of assay: functional, cell-based. Conditions: Homo sapiens.
A short description of assay [11]: HEK293 Cytotoxicity Assay Measured in Cell-Based System Using Plate Reader - 7071-01_Inhibitor_Dose_CherryPick_Activity_Set2. It is filed as functional.
Assay [12] is described as follows: microbe, parasite or virus in culture. The conditions noted are these: Mycobacterium tuberculosis. Type of assay: functional.
The target of another assay is Nonstructural protein 1 (Influenza A virus, UniProt Q194T2). It is filed as functional, Influenza A virus (A/California/07/2009(H1N1)).
Assay [13] in a line: human group III sPLA2 inhibitors, dose response, biochemical, QFRET, IC50 (AID 743457).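 Note: green fluorescence rise as the enzyme cleaves BODIPY PC-A2 in liposomes; potency for inhibition of the enzyme.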
Assay [14] concerns the target T3, Oxysterols receptor LXR-beta (Homo sapiens, UniProt P55055).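 Note: agonist activity at LXR measured by a cell-based luminescence readout across a dose range, run as a counterscreen for daf-12 agonists; HEK293 cells with Gal4-LXR fusion and GAL4-driven luciferase reporter; potency for activation of Gal4-LXR reporter so compounds are agonists.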
T3 sequence (P55055 whole entry): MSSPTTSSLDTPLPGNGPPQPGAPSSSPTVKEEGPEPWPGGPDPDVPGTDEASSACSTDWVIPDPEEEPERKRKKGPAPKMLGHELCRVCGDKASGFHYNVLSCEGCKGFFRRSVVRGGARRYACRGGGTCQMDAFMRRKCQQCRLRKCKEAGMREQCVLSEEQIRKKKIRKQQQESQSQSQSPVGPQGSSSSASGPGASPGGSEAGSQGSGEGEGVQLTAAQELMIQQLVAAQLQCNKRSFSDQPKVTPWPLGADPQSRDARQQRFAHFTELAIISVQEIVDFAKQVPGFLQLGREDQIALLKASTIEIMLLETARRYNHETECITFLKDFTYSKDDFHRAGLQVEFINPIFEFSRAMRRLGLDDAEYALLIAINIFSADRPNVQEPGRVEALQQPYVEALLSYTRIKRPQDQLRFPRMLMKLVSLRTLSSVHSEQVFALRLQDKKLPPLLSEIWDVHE
Type of assay: functional, cell-based.

The next assay addresses T4, Aminopeptidase N (Plasmodium falciparum FcB1/Columbia, UniProt O96935).
T4 sequence (O96935 whole entry): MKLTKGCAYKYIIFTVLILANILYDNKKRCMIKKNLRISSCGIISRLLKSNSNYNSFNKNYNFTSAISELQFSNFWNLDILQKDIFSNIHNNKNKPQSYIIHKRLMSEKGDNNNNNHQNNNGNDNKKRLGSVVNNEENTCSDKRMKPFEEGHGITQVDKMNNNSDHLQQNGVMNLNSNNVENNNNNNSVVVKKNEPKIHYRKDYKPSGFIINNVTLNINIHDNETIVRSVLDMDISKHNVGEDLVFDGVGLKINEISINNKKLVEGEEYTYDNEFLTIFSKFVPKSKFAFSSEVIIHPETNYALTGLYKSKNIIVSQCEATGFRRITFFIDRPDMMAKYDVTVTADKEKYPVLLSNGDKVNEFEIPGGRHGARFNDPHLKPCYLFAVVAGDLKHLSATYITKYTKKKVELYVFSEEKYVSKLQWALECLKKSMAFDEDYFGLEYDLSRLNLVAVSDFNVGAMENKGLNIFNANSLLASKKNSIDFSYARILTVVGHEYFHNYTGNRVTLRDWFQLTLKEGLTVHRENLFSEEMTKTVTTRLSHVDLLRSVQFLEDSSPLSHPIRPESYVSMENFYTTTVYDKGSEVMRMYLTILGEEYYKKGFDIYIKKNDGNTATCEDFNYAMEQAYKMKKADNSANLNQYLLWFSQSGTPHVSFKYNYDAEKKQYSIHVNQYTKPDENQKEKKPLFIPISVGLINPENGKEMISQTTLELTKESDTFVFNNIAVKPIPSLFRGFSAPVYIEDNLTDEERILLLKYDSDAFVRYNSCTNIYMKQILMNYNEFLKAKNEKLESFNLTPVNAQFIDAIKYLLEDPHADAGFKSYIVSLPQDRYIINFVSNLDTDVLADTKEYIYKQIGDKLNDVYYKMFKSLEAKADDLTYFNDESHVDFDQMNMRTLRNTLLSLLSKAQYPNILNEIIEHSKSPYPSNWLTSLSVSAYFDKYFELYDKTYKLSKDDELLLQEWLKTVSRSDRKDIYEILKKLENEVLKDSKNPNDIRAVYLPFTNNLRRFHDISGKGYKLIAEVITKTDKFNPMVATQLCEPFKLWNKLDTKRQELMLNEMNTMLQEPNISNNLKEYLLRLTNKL
The assay can be described thus: P. falciparum M1AAP inhibitors, biochemical, fluorogenic H-Leu-NHMec substrate, 1536-well (AID 1445). Further details: species or system Plasmodium falciparum 3D7, 3D7.

In assay [15] the target is T5, Carboxy-terminal domain RNA polymerase II polypeptide A small phosphatase 1 (Homo sapiens, UniProt Q9GZU7).
T5 sequence (Q9GZU7 whole entry): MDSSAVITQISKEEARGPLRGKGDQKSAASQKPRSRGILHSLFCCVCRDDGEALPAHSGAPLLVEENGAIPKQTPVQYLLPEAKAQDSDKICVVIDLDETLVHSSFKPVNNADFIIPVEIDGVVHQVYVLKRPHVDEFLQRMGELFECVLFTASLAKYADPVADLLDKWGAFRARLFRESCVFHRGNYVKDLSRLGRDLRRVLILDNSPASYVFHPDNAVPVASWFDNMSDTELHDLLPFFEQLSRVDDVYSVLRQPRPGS
The assay can be described thus: inhibitors of CTDSP1, concentration-response testing, biochemical assay, absorbance-based, actives from ultra-high-throughput screening (AID 540297). It is filed as functional.

Assay [16] is described as follows: HepG2 cell cytotoxicity, dose response, cytotoxicity control, cherry-picks, set 5 (AID 1053118). Type of assay: functional, cell-based.
Assay [17] is described as follows: HEK293 cell cytotoxicity, dose response, cytotoxicity control, cherry-picks, set 5 (AID 1053117). Type of assay: functional, cell-based.

1-phosphatidylinositol 4,5-bisphosphate phosphodiesterase beta-3, sequence (Q01970 whole entry): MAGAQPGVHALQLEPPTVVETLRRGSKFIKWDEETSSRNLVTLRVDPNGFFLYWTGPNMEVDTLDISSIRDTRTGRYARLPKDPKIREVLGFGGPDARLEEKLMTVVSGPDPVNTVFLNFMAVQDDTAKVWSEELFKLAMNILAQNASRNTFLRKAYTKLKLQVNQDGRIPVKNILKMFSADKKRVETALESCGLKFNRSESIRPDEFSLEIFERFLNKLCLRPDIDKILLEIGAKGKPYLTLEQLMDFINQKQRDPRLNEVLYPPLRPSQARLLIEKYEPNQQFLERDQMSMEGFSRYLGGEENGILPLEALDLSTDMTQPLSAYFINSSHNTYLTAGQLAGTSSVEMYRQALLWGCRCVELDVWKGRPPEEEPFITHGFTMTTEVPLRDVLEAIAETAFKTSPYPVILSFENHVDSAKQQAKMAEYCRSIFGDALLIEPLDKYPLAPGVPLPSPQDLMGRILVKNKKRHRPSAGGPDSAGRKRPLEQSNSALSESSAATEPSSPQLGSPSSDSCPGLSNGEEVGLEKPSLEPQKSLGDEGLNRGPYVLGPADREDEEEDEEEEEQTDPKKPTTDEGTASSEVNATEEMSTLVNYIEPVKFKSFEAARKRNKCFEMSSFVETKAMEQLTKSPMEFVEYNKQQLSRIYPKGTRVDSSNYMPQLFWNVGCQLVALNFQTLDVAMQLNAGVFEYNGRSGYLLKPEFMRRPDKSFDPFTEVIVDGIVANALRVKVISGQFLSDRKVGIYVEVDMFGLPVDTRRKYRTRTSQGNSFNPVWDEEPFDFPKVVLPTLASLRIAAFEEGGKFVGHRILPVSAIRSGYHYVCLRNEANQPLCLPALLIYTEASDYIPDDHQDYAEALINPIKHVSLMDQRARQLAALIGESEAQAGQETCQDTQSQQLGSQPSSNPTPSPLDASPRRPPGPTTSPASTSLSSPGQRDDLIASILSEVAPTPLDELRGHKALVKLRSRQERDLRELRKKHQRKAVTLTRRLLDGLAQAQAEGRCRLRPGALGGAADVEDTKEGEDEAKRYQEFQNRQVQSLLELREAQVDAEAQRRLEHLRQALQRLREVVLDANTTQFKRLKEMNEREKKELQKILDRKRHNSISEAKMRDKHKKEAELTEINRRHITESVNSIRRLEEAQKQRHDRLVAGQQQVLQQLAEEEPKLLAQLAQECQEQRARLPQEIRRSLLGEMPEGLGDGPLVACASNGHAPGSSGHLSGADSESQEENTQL

As for `O=c1[nH]c2ccccc2c(=O)n1-c1ccc(Cl)cc1Cl`, the IC50 in [1] and in assay [2] was > 122 µM (inactive) throughout.

Regarding `Oc1ccc(-c2csc(Nc3cccc4ccccc34)n2)cc1O`, the IC50 was 66.2 µM (active) on Large T antigen; 1.63 µM (active) in [3]; 78 µM (active) in assay [4]; 3.36 µM (active) in assay [5]; > 100 µM (active) at Genome polyprotein. Further, the CC50 with Vero was > 40 µM (active). The AC50 was 1.58 µM (active) in assay [6], 7.93 µM (active) in [7], 14.1 µM (active) on Caspase-6 and 10.5 µM (active) in assay [8].

Turning to `CC(=O)c1cc(C(C)=O)c(C)nc1C`, at Transthyretin, the EC50 was > 167 µM (inactive).

Turning to `CCOC(=O)Cc1cc(O)n2nc(C)c(-c3ccc(Cl)cc3)c2n1`, the Ki at fMet-Leu-Phe receptor is 19 µM (inactive).

For `O=C(COC(=O)c1ccc(Cl)c(S(=O)(=O)N2CCCCCC2)c1)Nc1ccccc1`, the IC50 in assay [9] and in [10] was > 69.5 µM (inactive) throughout.

As for `S=C(Nc1cccc(Cl)c1)Nc1ccccc1Oc1ccccc1`, the AC50 (in the assay on HEK293; in assay [11]) was 23.5 µM (active) each time.

Regarding `COC(=O)C(Cc1ccc(O)cc1)NC(=O)C(C)NC(=O)c1ccc(C(C)(C)C)cc1` (stereo not given), the IC50 in assay [1] and in assay [2] was > 123 µM (inactive) in each case.

Consider `Cc1cc(C)c(C)c(N=Nc2nc3ccccc3n2C)c1C`, for which the CC50 in assay [12] is > 40 µM (active). Moreover, the IC50 on Nonstructural protein 1 is 17.6 µM (active); in assay [13], > 122 µM (inactive).

Regarding `Cc1c(C(=O)OC2CCC(C)CC2)[nH]c2c1C(=O)CCC2` (stereo not given), in assay [14], the EC50 was > 67.5 µM (inactive).

Consider `CCOc1ccc(NC2=NC(=O)S/C2=C\c2ccc(O)cc2)cc1`, for which, on Transthyretin, the EC50 is > 167 µM (inactive).

Consider `CC(C)C1C(=O)N(Cc2cn(CC3CCCCC3)nn2)CCS(=O)(=O)N1Cc1ccc(-c2ccccc2)cc1` (stereo not given), for which the IC50 in [9] was 10.2 µM (inactive); in assay [10], > 69.5 µM (inactive).

Regarding `C[C@@H]1CN([C@@H](C)CO)C(=O)c2cc(NS(=O)(=O)c3ccc(F)cc3)ccc2O[C@@H](C)CCCCO[C@@H]1CN(C)Cc1ccc2c(c1)OCO2`, the AC50 (in the assay with HEK293; in assay [11]) was 28.3 µM (active) each time.

As for `Cc1ccc(S(=O)(=O)NC2=NC(=O)/C(=C/c3ccc(Br)o3)S2)cc1`, the figures for the IC50 (on Aminopeptidase N; in assay [15]) were 42.1 µM (active) and 7.47 µM (active), respectively. Moreover, the AC50 in assay [8] was 14.1 µM (active).

As for `CO[C@H]1CN(C)C(=O)c2cc(NC(=O)Nc3cc(Cl)cc(Cl)c3)ccc2OC[C@@H](C)NC[C@H]1C`, the AC50 is 42.6 µM (active) in [16] and > 52 µM (inactive) in assay [17].

As to `O=c1[nH]cnc2cc(-c3ccccc3)sc12`, in assay [14], the EC50 is > 67.5 µM (inactive).
